{"source": "patent US8815249B2", "about": "(priority 1999, dated 2014)", "note": "Non-standard residues stand in square brackets, D forms with d. Ava = NCCCCC(=O)O", "data": [{"system": "normal donor (DR0402) PBMC", "type": "cell-based, human", "units": {"IFN-γ spots pulsed": "spots", "IFN-γ spots unpulsed": "spots"}, "values": [{"substance": "AE-TYR-1 (Ac-ALHIYMDGTMSQVQGSA-NH2)", "IFN-γ spots pulsed": 120, "IFN-γ spots unpulsed": 0}, {"substance": "AE-TYR-4 (Ac-LRMK[Ava]ALHIYMDGTMSQVQGSA-NH2; SMILES CC[C@H](C)[C@H](NC(=O)[C@H](Cc1c[nH]cn1)NC(=O)[C@H](CC(C)C)NC(=O)[C@H](C)NC(=O)CCCCNC(=O)[C@H](CCCCN)NC(=O)[C@H](CCSC)NC(=O)[C@H](CCCNC(=N)N)NC(=O)[C@H](CC(C)C)NC(C)=O)C(=O)N[C@@H](Cc1ccc(O)cc1)C(=O)N[C@@H](CCSC)C(=O)N[C@@H](CC(=O)O)C(=O)NCC(=O)N[C@H](C(=O)N[C@@H](CCSC)C(=O)N[C@@H](CO)C(=O)N[C@@H](CCC(N)=O)C(=O)N[C@H](C(=O)N[C@@H](CCC(N)=O)C(=O)NCC(=O)N[C@@H](CO)C(=O)N[C@@H](C)C(N)=O)C(C)C)[C@@H](C)O)", "IFN-γ spots pulsed": 620, "IFN-γ spots unpulsed": 340}, {"substance": "AE-TYR-2 (Ac-HNALHIYMDGTMSQVQGSA-NH2)", "IFN-γ spots pulsed": 360, "IFN-γ spots unpulsed": 140}, {"substance": "AE-TYR-6 (Ac-LRMK[Ava]HIYMDGTMSQVQGSA-NH2; SMILES CC[C@H](C)[C@H](NC(=O)[C@H](Cc1c[nH]cn1)NC(=O)CCCCNC(=O)[C@H](CCCCN)NC(=O)[C@H](CCSC)NC(=O)[C@H](CCCNC(=N)N)NC(=O)[C@H](CC(C)C)NC(C)=O)C(=O)N[C@@H](Cc1ccc(O)cc1)C(=O)N[C@@H](CCSC)C(=O)N[C@@H](CC(=O)O)C(=O)NCC(=O)N[C@H](C(=O)N[C@@H](CCSC)C(=O)N[C@@H](CO)C(=O)N[C@@H](CCC(N)=O)C(=O)N[C@H](C(=O)N[C@@H](CCC(N)=O)C(=O)NCC(=O)N[C@@H](CO)C(=O)N[C@@H](C)C(N)=O)C(C)C)[C@@H](C)O)", "IFN-γ spots pulsed": 650, "IFN-γ spots unpulsed": 280}, {"substance": "AE-TYR-3 (Ac-LRMK[Ava]NALHIYMDGTMSQVQGSA-NH2; SMILES CC[C@H](C)[C@H](NC(=O)[C@H](Cc1c[nH]cn1)NC(=O)[C@H](CC(C)C)NC(=O)[C@H](C)NC(=O)[C@H](CC(N)=O)NC(=O)CCCCNC(=O)[C@H](CCCCN)NC(=O)[C@H](CCSC)NC(=O)[C@H](CCCNC(=N)N)NC(=O)[C@H](CC(C)C)NC(C)=O)C(=O)N[C@@H](Cc1ccc(O)cc1)C(=O)N[C@@H](CCSC)C(=O)N[C@@H](CC(=O)O)C(=O)NCC(=O)N[C@H](C(=O)N[C@@H](CCSC)C(=O)N[C@@H](CO)C(=O)N[C@@H](CCC(N)=O)C(=O)N[C@H](C(=O)N[C@@H](CCC(N)=O)C(=O)NCC(=O)N[C@@H](CO)C(=O)N[C@@H](C)C(N)=O)C(C)C)[C@@H](C)O)", "IFN-γ spots pulsed": 310, "IFN-γ spots unpulsed": 70}]}, {"system": "normal donor (DR0701) PBMC", "type": "cell-based, human", "units": {"IFN-γ spots pulsed": "spots", "IFN-γ spots unpulsed": "spots"}, "values": [{"substance": "AE-Her-47 (Ac-LRMK[Ava]GSPYVSRLLGICL-NH2; SMILES CC[C@H](C)[C@H](NC(=O)CNC(=O)[C@H](CC(C)C)NC(=O)[C@H](CC(C)C)NC(=O)[C@H](CCCNC(=N)N)NC(=O)[C@H](CO)NC(=O)[C@@H](NC(=O)[C@H](Cc1ccc(O)cc1)NC(=O)[C@@H]1CCCN1C(=O)[C@H](CO)NC(=O)CNC(=O)CCCCNC(=O)[C@H](CCCCN)NC(=O)[C@H](CCSC)NC(=O)[C@H](CCCNC(=N)N)NC(=O)[C@H](CC(C)C)NC(C)=O)C(C)C)C(=O)N[C@@H](CS)C(=O)N[C@@H](CC(C)C)C(N)=O)", "IFN-γ spots pulsed": 380, "IFN-γ spots unpulsed": 23}, {"substance": "AE-Her-36 (Ac-GVGSPYVSRLLGICL-NH2; listed as Homo sapiens)", "IFN-γ spots pulsed": 100, "IFN-γ spots unpulsed": 4}, {"substance": "AE-Her-37 (Ac-LRMKGVGSPYVSRLLGICL-NH2)", "IFN-γ spots pulsed": 560, "IFN-γ spots unpulsed": 65}]}]}
